# Results: ChEMBL document CHEMBL5465560, “Selectivity Literature for EUbOPEN Chemogenomic Library” (2024)
# How the values were obtained:
# [1] = molecular target: Tyrosine-protein kinase Lck (Homo sapiens, UniProt P06239); experiment: Selectivity interaction (KinomeScan (DiscoverX)) EUB0000229b LCK; settings: at 10 µM
# [2] = molecular target: Tyrosine-protein kinase Fgr (Homo sapiens) (UniProt P09769); experiment: Selectivity interaction (KinomeScan (DiscoverX)) EUB0000229b FGR; settings: at 10 µM
# [3] = molecular target: Serine/threonine-protein kinase Nek7 (Homo sapiens) (UniProt Q8TDX7); experiment: Selectivity interaction (KinomeScan (DiscoverX)) EUB0000595a NEK7; settings: at 10 µM
# [4] = molecular target: Dual specificity testis-specific protein kinase 1 (Homo sapiens) (UniProt Q15569); experiment: Selectivity interaction (KinomeScan (DiscoverX)) EUB0000045b TESK1
# Chain of Dual specificity testis-specific protein kinase 1 (Homo sapiens) (Q15569 whole entry, looked up): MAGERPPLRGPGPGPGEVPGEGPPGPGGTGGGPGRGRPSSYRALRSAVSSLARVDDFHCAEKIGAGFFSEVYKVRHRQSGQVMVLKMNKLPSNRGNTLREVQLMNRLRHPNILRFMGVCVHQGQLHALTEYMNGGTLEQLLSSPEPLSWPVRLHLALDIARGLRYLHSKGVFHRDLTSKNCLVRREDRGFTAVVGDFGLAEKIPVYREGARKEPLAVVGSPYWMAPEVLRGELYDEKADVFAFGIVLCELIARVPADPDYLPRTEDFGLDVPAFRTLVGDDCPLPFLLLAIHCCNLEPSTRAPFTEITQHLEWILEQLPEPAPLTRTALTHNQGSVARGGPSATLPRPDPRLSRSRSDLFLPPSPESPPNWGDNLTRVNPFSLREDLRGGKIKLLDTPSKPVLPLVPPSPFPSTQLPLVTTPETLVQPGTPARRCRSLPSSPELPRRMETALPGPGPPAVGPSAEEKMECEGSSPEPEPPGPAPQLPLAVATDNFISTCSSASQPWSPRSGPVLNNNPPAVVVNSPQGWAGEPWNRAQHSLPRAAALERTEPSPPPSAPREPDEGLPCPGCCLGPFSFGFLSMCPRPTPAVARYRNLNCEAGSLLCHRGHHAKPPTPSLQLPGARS
# [5] = molecular target: Mitogen-activated protein kinase 7 (Homo sapiens) (UniProt Q13164); experiment: Selectivity interaction (KinomeScan (DiscoverX)) EUB0000695a MAPK7; settings: at 100 nM
# [6] = molecular target: Serine/threonine-protein kinase MRCK alpha (Homo sapiens) (UniProt Q5VT25); experiment: Selectivity interaction (Kinase panel (Z-LYTE Assay)) EUB0001632a CDC42BPA; settings: at 10 µM
# [7] = molecular target: T1, Mitogen-activated protein kinase kinase kinase 2 (Homo sapiens) (UniProt Q9Y2U5); experiment: Selectivity interaction (KinomeScan (DiscoverX)) EUB0001049a MAP3K2; settings: at 1 µM
# T1 sequence (whole entry): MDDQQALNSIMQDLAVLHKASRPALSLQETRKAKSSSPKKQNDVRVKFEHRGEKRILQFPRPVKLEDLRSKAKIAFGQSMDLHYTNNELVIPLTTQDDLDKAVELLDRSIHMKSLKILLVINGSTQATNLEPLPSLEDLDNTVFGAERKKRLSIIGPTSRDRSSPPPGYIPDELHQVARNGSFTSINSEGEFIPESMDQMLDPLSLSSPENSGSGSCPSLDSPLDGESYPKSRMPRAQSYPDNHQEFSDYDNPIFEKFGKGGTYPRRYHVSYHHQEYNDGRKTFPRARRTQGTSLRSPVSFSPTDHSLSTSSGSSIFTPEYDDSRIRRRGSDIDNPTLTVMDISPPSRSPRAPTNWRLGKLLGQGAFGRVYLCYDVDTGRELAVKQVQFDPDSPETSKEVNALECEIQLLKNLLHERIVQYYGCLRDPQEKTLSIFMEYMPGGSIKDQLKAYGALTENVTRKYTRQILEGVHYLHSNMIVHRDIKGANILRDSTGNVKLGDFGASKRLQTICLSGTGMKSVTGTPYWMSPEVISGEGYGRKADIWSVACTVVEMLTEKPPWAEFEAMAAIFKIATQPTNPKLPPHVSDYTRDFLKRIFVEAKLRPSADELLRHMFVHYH
# [8] = molecular target: Serine/threonine-protein kinase N2 (Homo sapiens, UniProt Q16513); experiment: Selectivity interaction (ProQinase) EUB0000171b PKN2
# Chain of Serine/threonine-protein kinase N2 (Q16513 whole entry, looked up): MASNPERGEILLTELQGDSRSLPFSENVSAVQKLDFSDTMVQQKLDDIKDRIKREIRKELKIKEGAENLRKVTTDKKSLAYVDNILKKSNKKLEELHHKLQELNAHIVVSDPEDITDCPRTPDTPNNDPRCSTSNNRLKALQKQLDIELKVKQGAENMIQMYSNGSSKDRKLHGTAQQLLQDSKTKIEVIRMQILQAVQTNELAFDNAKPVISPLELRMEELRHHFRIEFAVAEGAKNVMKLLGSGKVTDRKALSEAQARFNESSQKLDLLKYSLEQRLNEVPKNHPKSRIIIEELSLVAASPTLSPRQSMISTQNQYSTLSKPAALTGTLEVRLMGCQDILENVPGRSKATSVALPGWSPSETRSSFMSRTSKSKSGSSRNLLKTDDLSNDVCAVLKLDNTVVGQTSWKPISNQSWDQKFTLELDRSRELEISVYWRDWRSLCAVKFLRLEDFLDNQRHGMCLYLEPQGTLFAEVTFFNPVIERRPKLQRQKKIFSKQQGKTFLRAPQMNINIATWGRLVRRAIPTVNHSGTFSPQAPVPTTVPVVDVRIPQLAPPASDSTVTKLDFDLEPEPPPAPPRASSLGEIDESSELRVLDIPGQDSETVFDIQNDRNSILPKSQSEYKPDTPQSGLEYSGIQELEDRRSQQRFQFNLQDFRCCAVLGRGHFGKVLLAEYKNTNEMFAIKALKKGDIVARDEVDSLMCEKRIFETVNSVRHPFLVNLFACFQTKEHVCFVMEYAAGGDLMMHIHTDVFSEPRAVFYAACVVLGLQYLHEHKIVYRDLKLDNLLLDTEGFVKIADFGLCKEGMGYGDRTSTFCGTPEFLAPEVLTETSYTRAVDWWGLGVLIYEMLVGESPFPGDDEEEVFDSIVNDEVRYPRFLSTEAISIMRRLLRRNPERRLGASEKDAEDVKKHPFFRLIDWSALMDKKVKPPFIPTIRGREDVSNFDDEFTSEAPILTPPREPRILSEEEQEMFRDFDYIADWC
# [9] = molecular target: Macrophage-stimulating protein receptor (Homo sapiens, UniProt Q04912); experiment: Selectivity interaction (KinomeScan (DiscoverX)) EUB0000618a MST1R; settings: at 10 µM
# Chain of Macrophage-stimulating protein receptor (Q04912 25-304 limits assumed): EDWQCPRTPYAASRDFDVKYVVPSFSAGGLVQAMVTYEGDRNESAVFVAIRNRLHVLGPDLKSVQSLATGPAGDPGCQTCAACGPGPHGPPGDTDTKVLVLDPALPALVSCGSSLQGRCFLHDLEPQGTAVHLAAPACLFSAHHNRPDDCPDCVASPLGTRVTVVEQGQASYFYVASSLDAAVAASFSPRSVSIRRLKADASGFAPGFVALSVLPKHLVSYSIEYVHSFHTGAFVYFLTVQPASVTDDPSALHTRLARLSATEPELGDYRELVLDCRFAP
# Chain of Macrophage-stimulating protein receptor (Q04912 310-1400 limits assumed): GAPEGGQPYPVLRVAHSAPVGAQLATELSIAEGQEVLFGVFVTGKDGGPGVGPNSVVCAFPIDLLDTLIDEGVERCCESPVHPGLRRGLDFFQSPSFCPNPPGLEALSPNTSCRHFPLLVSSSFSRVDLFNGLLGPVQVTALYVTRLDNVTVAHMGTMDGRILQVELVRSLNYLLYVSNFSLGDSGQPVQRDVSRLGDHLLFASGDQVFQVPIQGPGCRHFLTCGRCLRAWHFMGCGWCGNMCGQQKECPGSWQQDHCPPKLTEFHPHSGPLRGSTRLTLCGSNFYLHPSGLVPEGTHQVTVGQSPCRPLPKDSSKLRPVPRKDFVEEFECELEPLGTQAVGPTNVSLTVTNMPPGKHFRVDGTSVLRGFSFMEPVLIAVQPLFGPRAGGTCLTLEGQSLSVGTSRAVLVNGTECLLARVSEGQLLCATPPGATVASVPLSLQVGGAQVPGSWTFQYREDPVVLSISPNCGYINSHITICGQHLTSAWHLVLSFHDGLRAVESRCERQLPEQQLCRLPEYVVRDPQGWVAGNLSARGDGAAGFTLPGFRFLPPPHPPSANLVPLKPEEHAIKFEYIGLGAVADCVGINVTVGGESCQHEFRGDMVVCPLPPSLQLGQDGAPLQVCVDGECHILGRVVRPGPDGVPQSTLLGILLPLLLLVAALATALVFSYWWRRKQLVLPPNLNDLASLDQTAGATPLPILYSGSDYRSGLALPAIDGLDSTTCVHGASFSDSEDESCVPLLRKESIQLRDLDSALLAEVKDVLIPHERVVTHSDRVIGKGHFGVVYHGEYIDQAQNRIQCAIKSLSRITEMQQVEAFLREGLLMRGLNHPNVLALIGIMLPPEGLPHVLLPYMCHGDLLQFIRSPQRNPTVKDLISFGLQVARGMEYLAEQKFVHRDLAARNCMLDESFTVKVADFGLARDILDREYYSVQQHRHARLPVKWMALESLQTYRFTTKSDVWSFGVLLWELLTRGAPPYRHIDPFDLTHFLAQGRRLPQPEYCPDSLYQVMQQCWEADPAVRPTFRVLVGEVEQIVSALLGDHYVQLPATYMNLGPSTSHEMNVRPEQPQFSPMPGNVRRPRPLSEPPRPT
# [10] = molecular target: RAC-alpha serine/threonine-protein kinase (Homo sapiens, UniProt P31749); experiment: Selectivity interaction (KinomeScan (DiscoverX)) EUB0000618a AKT1; settings: at 10 µM
# [11] = molecular target: Dual specificity mitogen-activated protein kinase kinase 1 (Homo sapiens, UniProt Q02750); experiment: Selectivity interaction (ActivX KiNativ screen (kinase selectivity in THP-1 cell lysates)) EUB0000639a MAP2K1; format: subcellular; settings: lysate, at 0.04 µM
# Chain of Dual specificity mitogen-activated protein kinase kinase 1 (Q02750 whole entry): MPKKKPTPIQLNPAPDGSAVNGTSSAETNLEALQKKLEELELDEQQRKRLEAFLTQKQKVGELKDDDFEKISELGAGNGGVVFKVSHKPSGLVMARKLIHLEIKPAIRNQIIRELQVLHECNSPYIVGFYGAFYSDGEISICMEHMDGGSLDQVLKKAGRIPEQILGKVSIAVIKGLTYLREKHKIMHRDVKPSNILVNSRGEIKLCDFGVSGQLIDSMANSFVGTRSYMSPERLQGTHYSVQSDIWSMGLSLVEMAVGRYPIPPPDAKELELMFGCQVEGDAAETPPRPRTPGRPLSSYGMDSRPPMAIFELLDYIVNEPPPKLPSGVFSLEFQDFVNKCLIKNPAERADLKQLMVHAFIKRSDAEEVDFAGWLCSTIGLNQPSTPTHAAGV
# [12] = molecular target: Ribosomal protein S6 kinase alpha-2 (Homo sapiens) (UniProt Q15349); experiment: Selectivity interaction (KinomeScan (DiscoverX)) EUB0000655a RPS6KA2; settings: at 10 µM
# Chain of Ribosomal protein S6 kinase alpha-2 (Homo sapiens) (Q15349 whole entry): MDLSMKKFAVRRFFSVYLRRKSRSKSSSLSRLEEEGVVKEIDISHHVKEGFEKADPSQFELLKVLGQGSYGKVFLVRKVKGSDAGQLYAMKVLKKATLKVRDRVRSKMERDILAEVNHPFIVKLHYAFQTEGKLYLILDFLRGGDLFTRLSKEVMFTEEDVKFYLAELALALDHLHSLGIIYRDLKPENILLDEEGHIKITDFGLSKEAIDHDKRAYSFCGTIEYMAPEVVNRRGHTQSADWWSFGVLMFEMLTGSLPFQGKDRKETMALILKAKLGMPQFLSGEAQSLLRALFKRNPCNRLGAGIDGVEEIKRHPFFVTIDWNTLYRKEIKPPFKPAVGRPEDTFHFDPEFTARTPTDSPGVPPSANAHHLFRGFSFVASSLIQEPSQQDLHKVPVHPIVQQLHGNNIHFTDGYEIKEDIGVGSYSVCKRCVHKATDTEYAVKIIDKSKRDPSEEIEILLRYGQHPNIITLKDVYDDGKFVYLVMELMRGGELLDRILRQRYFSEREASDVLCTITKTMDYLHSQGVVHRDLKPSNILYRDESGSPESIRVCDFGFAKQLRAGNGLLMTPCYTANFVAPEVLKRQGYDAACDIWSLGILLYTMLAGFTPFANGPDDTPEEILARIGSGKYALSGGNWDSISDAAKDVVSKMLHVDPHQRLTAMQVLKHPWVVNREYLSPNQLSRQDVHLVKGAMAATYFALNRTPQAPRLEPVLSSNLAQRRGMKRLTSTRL
# [13] = molecular target: Mitogen-activated protein kinase kinase kinase kinase 1 (Homo sapiens) (UniProt Q92918); settings: at 10 µM
# Chain of Mitogen-activated protein kinase kinase kinase kinase 1 (Homo sapiens) (Q92918 whole entry, looked up): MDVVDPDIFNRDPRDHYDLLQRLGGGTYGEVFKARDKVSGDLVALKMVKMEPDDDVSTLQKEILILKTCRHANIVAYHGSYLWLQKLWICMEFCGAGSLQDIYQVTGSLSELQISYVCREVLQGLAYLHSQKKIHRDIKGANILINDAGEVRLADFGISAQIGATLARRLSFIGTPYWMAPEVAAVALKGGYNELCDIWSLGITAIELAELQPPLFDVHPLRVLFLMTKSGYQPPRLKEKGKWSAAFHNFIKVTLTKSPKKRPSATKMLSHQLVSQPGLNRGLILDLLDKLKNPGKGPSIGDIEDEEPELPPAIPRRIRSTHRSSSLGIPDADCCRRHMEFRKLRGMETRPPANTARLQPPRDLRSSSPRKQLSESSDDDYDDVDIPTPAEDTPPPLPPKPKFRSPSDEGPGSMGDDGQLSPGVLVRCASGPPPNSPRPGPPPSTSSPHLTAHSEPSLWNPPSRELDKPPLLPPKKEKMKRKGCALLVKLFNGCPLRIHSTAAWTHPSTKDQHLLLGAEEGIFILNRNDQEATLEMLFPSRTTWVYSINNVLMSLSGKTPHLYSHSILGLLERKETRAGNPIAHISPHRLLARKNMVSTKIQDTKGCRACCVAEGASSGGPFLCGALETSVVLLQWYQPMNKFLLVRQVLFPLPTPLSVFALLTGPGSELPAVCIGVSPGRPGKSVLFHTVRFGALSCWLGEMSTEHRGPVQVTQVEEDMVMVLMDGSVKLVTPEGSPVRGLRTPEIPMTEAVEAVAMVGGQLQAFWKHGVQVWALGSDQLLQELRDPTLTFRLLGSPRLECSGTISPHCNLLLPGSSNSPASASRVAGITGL
# [14] = molecular target: Mitogen-activated protein kinase kinase kinase kinase 4 (Homo sapiens, UniProt O95819); experiment: Selectivity interaction (Ambit KINOMEscan and KiNATiv profiling in Jurkat cells) EUB0000090b MAP4K4; format: cell-based; settings: at 1 µM
# [15] = molecular target: T2, cAMP-dependent protein kinase catalytic subunit PRKX (Homo sapiens) (UniProt P51817); experiment: Selectivity interaction (Ambit KINOMEscan and KiNATiv profiling in Jurkat cells) EUB0000090b PRKX; format: cell-based; settings: at 1 µM
# T2 sequence (whole entry): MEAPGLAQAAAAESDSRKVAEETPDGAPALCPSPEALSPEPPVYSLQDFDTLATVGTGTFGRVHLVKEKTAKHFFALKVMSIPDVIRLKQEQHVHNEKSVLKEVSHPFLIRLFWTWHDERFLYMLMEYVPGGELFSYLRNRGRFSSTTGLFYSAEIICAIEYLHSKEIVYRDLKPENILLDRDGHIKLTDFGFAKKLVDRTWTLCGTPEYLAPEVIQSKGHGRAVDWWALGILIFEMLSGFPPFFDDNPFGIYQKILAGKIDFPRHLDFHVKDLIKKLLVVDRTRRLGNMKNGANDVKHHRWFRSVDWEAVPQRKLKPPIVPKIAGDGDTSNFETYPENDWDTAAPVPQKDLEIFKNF
smiles,measurement,setting,value
COc1cc(N(C)c2ccnc3ccc(C(F)(F)F)cc23)cc(OC)c1OC,% binding,[1],80%
same,% binding,[2],97%
COCC(=O)NC/C=C/c1ccc2ncnc(Nc3ccc(Oc4ccc(C)nc4)c(C)c3)c2c1 [CP-724714],% of control,[3],73%
C=CC(=O)Nc1cc(-n2c(=O)ccc3cnc4ccc(-c5ccc(NS(C)(=O)=O)cc5)cc4c32)ccc1C,% of control,[4]; at 1 µM,94%
same,% of control,[4]; at 10 µM,98%
Cc1cc(F)c(C(=O)Nc2cccc(-c3nncn3C(C)C)n2)cc1-n1cnc(C2CC2)c1,% of control,[5],100%
Cn1cc(-n2cnc3c(NCc4nc5cc(Cl)c(Cl)cc5[nH]4)nc(N4CCOCC4)nc32)cn1,% of control,[6],-5.27%
COc1cc(Nc2nc(C)cc(-c3cnn4nc(OC)ccc34)n2)cc(C(F)(F)F)c1,% of control,[7],87%
C=CC(=O)Nc1cccc(C(=O)Nc2ccc(Nc3cc(-c4[nH]c(SC)nc4C)ccn3)cc2)c1,% of control,[8]; at 1 µM,90%
same,% of control,[8]; at 5 µM,76%
O[C@H]1CC[C@H](Nc2ncc3nc(Nc4c(F)cc(F)cc4F)n([C@H]4CCOC4)c3n2)CC1,% of control,[9],100%
same,% of control,[10],72%
CC[C@@H]1[C@H](F)C(=O)N[C@@H]1COc1nccc2cc(C(N)=O)c(OC)cc12 [ZIMLOVISERTIB],% of inhibition,[11],5.6%
CN(C)CCOc1ccc(-c2nc(-c3ccncc3)c(-c3ccc4c(c3)CC/C4=N\O)[nH]2)cc1,% of control,[12],61%
CCN(CC)CCCCNc1ncc2cc(-c3cc(OC)cc(OC)c3)c(NC(=O)NC(C)(C)C)nc2n1,% of control,[13],100%
CN(C)C/C=C/C(=O)Nc1ccc(C(=O)N2CCCC(Nc3ncc(Cl)c(-c4c[nH]c5ccccc45)n3)C2)cc1 (configuration not stated),% of control,[14],78%
same,% of control,[15],89%
